Experimental data from PMC9026285 (ACS Chemical Neuroscience, 2022).

Key:
[1] = system: GFAP (astrogliosis), pS129 and human α-synuclein; experiment: GFAP immunoassay and histopathology in Line 61 mice; type: in vivo, mouse; conditions: hippocampus, 24 weeks
[2] = system: HexA/B from human placenta; experiment: Hexosaminidase A/B assay; type: biochemical
[3] = system: Line 61 α-synuclein transgenic mice; experiment: Beam walk test in Line 61 α-synuclein transgenic mice, chronic treatment; type: in vivo, mouse; conditions: Line 61 mice, 30 and 100 mg/kg/day oral, after 12 weeks, persisted to week 24
hTauP301L mice = experiment: Chronic; type: in vivo, mouse; conditions: P301L mice
[4] = system: brain protein and α-synuclein O-GlcNAcylation; experiment: O-protein and O-GlcNAcylated α-synuclein; conditions: Line 61 mice; for increase in brain protein O-GlcNAcylation (mean): 24 weeks, t = 4 h post-dose
[5] = system: protein O-GlcNAcylation in human PBMC; experiment: In vitro PBMC cell-based assay, human PBMC; conditions: 4 h, read-out: EC50, protein O-GlcNAcylation in human PBMC
recombinant human HexA = biological target: T1, recombinant human HexA (Homo sapiens, UniProt P06865); experiment: Hexosaminidase A assay; type: biochemical
T1 sequence (P06865 89-529): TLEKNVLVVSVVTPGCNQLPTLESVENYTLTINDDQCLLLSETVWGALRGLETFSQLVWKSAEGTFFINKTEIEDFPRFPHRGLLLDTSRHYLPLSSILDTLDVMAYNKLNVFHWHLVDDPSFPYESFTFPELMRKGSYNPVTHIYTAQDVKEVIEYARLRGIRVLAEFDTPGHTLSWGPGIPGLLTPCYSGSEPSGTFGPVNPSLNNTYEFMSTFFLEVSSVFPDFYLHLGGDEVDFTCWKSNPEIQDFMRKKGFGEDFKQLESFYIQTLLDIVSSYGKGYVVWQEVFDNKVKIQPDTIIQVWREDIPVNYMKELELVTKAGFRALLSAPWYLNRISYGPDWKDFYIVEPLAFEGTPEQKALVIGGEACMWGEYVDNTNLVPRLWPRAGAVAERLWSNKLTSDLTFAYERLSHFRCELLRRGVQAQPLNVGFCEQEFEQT

Half-life in mice = conditions: mouse, in vivo
[6] = cited from earlier work
[7] = up to the highest concentration tested (30 μM)

## CC(=O)Nc1nnc(N2CCN([C@@H](C)c3ccc4c(c3)OCO4)CC2)s1 [ASN90, (S)-N-(5-(4-(1-(benzo[d][1,3]dioxol-5-yl)ethyl)piperazin-1-yl)-1,3,4-thiadiazol-2-yl)acetamide]
[1]
  object size for pS129 α-synuclein immunoreactivity: significant decrease
  total α-synuclein immunoreactivity: unchanged
[2]; [7]
  inhibitory activity on HexA/B: no inhibitory activity
[3]
  motor performance in three types of beam walk (slips): highly significant treatment benefit
hTauP301L mice; 30 and 100 mg/kg/day oral, 6 months
  survival: significantly increased survival
hTauP301L mice; brainstem and hippocampus, chronic treatment
  effect on pathogenic tau pS202/205 (AT8): no statistically significant treatment effects
[4]; 30 mg/kg/day
  increase in brain protein O-GlcNAcylation (mean): +78%
[4]; 100 mg/kg, chronic, vs vehicle
  increase of O-GlcNAcylated α-synuclein as % of total: 1.7 fold
[4]; 100 mg/kg/day
  increase in brain protein O-GlcNAcylation (mean): +105%
[5]
  EC50: 209 nM
Recombinant human HexA; [7]
  inhibitory activity on HexA: no inhibitory activity
Half-life in mice
  half-life: 2.8 h

## CC(=O)N[C@H]1/C(=N/OC(=O)Nc2ccccc2)O[C@H](CO)[C@@H](O)[C@@H]1O [PUGNAc, reference compound]
[2]; read-out: IC50 HexA/B
  IC50: 31 nM
Recombinant human HexA
  IC50: 490 nM

## CCN=C1N[C@@H]2[C@@H](O)[C@H](O)[C@@H](CO)O[C@@H]2S1 [Thiamet G]
[6]
  brain-to-plasma ratio: 0.1
